Laboratory results: ChEMBL document CHEMBL1146942, “Abacavir prodrugs: microwave-assisted synthesis and their evaluation of anti-HIV activities” (Bioorg Med Chem Lett, 2006)

How the values were obtained:
[1] = system: CCRF-CEM; test: Cytotoxicity against CEM cell line; assay type: functional; conditions: Homo sapiens
[2] = system: Human immunodeficiency virus 1; test: Antiviral activity against HIV1 replication in CEM cell line; assay type: functional, organism-based; conditions: Human immunodeficiency virus 1, CCRF-CEM
[3] = system: CCRF-CEM; test: Selectivity index (CC50/EC50) for inhibition of HIV1 replication in CEM cell line; assay type: functional

SMILES | EC50 [2] | CC50 [1] | Selectivity index [3]
OCC1C=CC(n2cnc3c(NC4CC4)nc(/N=C(\c4ccccc4)c4ccc(Br)cc4)nc32)C1 (stereo not given) | 3.7 µM | 45 µM | 
Cc1ccc2c(c1)/C(=N\c1nc(NC3CC3)c3ncn(C4C=CC(CO)C4)c3n1)C(=O)N2 (stereo not given) | 2.1 µM | 78 µM | 
O=C1Nc2ccc(F)cc2/C1=N\c1nc(NC2CC2)c2ncn(C3C=CC(CO)C3)c2n1 (stereo not given) | 6.2 µM | 56 µM | 
C/C(=N\c1nc(NC2CC2)c2ncn(C3C=CC(CO)C3)c2n1)c1ccc(O)cc1 (stereo not given) | 1.9 µM | 62 µM | 
O=C1Nc2ccccc2/C1=N\c1nc(NC2CC2)c2ncn(C3C=CC(CO)C3)c2n1 (stereo not given) | 5 µM | 48 µM | 
Nc1nc(NC2CC2)c2ncn([C@H]3C=C[C@@H](CO)C3)c2n1 [ABACAVIR] | 1.6 µM | 83 µM | 

Now those with a lower EC50 [2], led by results:

EC50 [2] | SMILES | CC50 [1] | Selectivity index [3]
1.2 µM | COc1ccc(/C=N/c2nc(NC3CC3)c3ncn(C4C=CC(CO)C4)c3n2)c(O)c1 (stereo not given) | 100 µM | 
0.52 µM | O=[N+]([O-])c1ccc(/C=N/c2nc(NC3CC3)c3ncn(C4C=CC(CO)C4)c3n2)cc1 (stereo not given) | 12 µM | 
0.48 µM | O=[N+]([O-])c1ccccc1/C=N/c1nc(NC2CC2)c2ncn(C3C=CC(CO)C3)c2n1 (stereo not given) | 13 µM | 
0.36 µM | COc1ccc(/C=N/c2nc(NC3CC3)c3ncn(C4C=CC(CO)C4)c3n2)cc1 (stereo not given) | > 100 µM | 
0.06 µM | CN(C)c1ccc(/C=N/c2nc(NC3CC3)c3ncn(C4C=CC(CO)C4)c3n2)cc1 (stereo not given) | > 100 µM | 
0.05 µM | Cc1ccc(/C=N/c2nc(NC3CC3)c3ncn(C4C=CC(CO)C4)c3n2)cc1 (stereo not given) | > 100 µM | >2000
